Laboratory results published in patent US8846110B2, “Polymeric systems for the delivery of anticancer drugs” (Rexahn Pharmaceuticals, Inc., priority 2009, dated 2014).
Values belong to the molecule of their own block, whether it stands above or below them.

Legend:
Caki-1 = test: In vitro cell proliferation (SRB) assay, Caki-1; assay type: cell-based; conditions: Homo sapiens, drug equivalent, 96 hours incubation, SRB method
MDA-MB-231 (breast) = test: In vitro cell proliferation (SRB) assay, MDA-MB-231; assay type: cell-based; conditions: Homo sapiens, drug equivalent, 96 hours incubation, SRB method
Experimental: (§1) Cancer cell lines to determine the effect of polymer-drug conjugates were obtained from the following sources: Human MDA-MB-231 (breast), HCT116 (colon) and PANC-1 (pancreas), from the American Type Culture Collection (ATCC) (Manassas, Va.). UMRC2 (kidney) from United States National Cancer Institute (Bethesda, Md.). Cells were maintained in Dulbecco's modified Eagle's medium (“DMEM”, Invitrogen) supplemented with 10% FBS, P/S and 10 mM HEPES. All cells were incubated at 37° C. under humidified 5% CO2.
(§2) The growth inhibition assay of polymer-drug conjugates against human cancer cell lines was performed using the Sulforhodamine B (“SRB”) method (Skehan et al., J. National Cancer Institute, 82: 1107-1112 (1990)). […] After 5 minutes agitation in 10 mM Tris solution, the absorbance of each well was measured at 530 nm using Benchmark Plus Microplate reader (Bio-Rad Laboratories, Hercules, Calif.). The absorbance value provides a direct measure of the number of live cells post-treatment with copolymer-drug conjugates.
(§3) To translate the OD530 values into the number of live cells in each well, the OD530 values were compared to those on standard OD530—versus—cell number curves generated for each cell line. The percent survival was calculated using the formula: % Survival=live cell number [test]/live cell number [control]×100
(§4) The IC50 values were calculated by non-linear regression analysis.

HCT116 (colon) = test: In vitro cell proliferation (SRB) assay, HCT116; assay type: cell-based; conditions: Homo sapiens, HCT-116; drug equivalent; 96 hours incubation; SRB method
Experimental: as §1, §2, §3, §4

reduced folate carrier = biological target: T1, reduced folate carrier (Homo sapiens, UniProt P41440); conditions: low affinity reduced folate carrier, cellular uptake; cited from earlier work
T1 sequence (P41440 1-591): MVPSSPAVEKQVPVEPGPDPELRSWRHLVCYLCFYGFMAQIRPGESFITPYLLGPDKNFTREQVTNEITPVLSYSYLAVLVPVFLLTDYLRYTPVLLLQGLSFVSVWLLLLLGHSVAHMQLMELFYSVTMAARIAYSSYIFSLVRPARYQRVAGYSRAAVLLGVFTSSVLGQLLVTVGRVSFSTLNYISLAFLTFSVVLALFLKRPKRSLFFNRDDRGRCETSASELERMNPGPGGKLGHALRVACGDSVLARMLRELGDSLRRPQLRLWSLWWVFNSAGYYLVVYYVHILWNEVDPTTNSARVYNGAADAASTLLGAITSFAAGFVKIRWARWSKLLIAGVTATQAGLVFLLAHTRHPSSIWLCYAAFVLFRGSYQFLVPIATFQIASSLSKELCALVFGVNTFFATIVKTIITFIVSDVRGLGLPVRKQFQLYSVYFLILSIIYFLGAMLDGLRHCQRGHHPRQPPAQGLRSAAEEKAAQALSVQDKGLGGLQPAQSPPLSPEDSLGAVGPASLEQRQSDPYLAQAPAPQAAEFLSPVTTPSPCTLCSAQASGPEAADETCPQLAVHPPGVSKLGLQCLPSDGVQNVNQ

[1] = biological target: glycosylphosphatidylinositol-linked folate receptor (FR); conditions: high affinity folate receptor; cited from earlier work
mucin-1 = mucin-1 (Homo sapiens, UniProt P15941); conditions: specific ligand of mucin-1; cited from earlier work
mucin-1, sequence (P15941 24-1255): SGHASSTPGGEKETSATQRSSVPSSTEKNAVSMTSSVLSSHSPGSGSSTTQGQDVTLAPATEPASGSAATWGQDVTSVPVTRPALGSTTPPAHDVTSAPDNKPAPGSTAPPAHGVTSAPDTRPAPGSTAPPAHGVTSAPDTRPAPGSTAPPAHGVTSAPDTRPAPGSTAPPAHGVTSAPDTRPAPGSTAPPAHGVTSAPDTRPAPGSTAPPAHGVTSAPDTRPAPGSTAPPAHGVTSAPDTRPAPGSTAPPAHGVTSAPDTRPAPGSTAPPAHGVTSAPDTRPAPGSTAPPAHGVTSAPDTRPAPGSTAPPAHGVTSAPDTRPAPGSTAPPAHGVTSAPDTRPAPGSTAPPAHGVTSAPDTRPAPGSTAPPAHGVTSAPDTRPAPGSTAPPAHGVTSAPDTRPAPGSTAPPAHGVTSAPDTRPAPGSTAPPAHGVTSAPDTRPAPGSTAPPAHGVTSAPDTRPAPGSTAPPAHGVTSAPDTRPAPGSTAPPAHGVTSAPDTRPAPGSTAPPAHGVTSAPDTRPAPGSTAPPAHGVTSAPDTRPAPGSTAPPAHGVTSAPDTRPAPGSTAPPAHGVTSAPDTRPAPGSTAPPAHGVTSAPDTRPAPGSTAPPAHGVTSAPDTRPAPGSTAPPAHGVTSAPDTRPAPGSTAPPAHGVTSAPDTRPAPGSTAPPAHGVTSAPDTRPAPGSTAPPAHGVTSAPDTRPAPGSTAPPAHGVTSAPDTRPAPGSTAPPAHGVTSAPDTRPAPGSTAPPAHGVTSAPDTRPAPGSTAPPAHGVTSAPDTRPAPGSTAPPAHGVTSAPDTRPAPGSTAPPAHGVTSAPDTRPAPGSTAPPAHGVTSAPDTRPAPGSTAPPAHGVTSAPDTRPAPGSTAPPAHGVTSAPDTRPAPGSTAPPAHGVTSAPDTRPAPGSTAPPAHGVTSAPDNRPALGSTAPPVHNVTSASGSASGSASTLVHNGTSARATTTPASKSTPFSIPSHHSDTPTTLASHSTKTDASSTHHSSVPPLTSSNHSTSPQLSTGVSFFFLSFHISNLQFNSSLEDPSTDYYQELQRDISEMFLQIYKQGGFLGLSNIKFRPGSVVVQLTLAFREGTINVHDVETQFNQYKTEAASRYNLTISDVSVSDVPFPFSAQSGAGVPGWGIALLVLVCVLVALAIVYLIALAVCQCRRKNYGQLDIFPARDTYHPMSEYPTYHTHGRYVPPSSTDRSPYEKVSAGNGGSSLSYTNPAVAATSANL

- IC50 (MDA-MB-231 (breast)): 0.0015 µM
- IC50 (HCT116 (colon)): 0.00058 µM
Molecule: CC(=O)O[C@@]12CO[C@@H]1C[C@H](O)[C@@]1(C)C(=O)[C@H](O)C3=C(C)[C@@H](OC(=O)[C@H](O)[C@@H](NC(=O)OC(C)(C)C)c4ccccc4)C[C@@](O)([C@@H](OC(=O)c4ccccc4)[C@H]21)C3(C)C [Docetaxel, docetaxel]
- IC50 (Caki-1): 0.001 µM

Molecule: Nc1nc2ncc(CNc3ccc(C(=O)N[C@@H](CCC(=O)O)C(=O)O)cc3)nc2c(=O)[nH]1 [folates, Folic acid]
- Km (reduced folate carrier): ~1 µM
- Kd [1]: ~0.1 nM

Molecule: YCAREPPTRTFAYWG [EPPT1]
- Kd (mucin-1): 20000 nM
